Measurements published in patent US11420958B2, “Aryl and heteroaryl substituted indole compounds” (BRISTOL-MYERS SQUIBB COMPANY, priority 2017, dated 2022).

What was measured:
Type in all cases: cell-based
human TLR7 = human TLR7 (Homo sapiens (Human), UniProt Q9NYK1); test: TLR7 inhibition reporter assay (HEK-Blue, SEAP); settings: HEK-Blue cells overexpressing human TLR7, gardiquimod 7.5 μM stimulation
Summary of the method: (§1)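 HEK-Blue cells expressing human TLR7, TLR8 or TLR9 with NF-κB/AP-1-driven SEAP reporter; compounds 0.05 nM–50 μM, 30 min pre-treatment at room temperature. Stimulated with gardiquimod 7.5 μM (TLR7), R848 15.9 μM (TLR8) or ODN2006 5 nM (TLR9), 22 h at 37 °C; % inhibition of SEAP signal relative to agonist+DMSO and known-inhibitor wells.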

human TLR8 = human TLR8 (Homo sapiens (Human), UniProt Q9NR97); test: TLR8 inhibition reporter assay (HEK-Blue, SEAP); settings: HEK-Blue cells overexpressing human TLR8, R848 15.9 μM stimulation
Sequence of human TLR8 (Q9NR97 27-1041): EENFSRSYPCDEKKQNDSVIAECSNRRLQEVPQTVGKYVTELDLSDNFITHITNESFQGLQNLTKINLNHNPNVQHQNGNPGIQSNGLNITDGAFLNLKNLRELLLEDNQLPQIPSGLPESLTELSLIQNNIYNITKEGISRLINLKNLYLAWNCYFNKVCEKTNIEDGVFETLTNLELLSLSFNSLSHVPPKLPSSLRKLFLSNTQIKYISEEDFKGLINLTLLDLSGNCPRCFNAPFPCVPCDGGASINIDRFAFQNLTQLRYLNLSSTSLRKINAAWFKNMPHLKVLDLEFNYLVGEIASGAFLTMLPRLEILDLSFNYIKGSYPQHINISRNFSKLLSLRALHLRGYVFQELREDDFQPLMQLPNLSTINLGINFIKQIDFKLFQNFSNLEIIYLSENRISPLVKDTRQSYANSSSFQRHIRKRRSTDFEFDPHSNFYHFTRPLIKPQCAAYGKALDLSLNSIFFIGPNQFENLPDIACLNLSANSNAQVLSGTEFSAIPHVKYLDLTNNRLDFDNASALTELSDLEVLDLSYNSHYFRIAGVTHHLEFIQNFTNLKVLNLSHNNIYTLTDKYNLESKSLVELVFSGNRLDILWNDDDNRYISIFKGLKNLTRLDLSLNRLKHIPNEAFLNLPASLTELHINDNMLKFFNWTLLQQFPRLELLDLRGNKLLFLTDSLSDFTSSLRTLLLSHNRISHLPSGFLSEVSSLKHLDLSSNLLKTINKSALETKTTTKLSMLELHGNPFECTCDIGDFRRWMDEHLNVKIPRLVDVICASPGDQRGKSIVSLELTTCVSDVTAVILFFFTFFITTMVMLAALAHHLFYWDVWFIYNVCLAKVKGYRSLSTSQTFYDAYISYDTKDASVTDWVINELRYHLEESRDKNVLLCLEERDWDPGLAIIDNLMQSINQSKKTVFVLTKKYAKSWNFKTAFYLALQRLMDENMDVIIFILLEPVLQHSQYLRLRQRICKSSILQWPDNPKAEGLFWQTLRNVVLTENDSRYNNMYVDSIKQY
Summary of the method: as §1

human TLR9 = human TLR9 (Homo sapiens (Human), UniProt Q9NR96); test: TLR9 inhibition reporter assay (HEK-Blue, SEAP); settings: HEK-Blue cells overexpressing human TLR9, ODN2006 5 nM stimulation
Sequence of human TLR9 (Q9NR96 26-1032): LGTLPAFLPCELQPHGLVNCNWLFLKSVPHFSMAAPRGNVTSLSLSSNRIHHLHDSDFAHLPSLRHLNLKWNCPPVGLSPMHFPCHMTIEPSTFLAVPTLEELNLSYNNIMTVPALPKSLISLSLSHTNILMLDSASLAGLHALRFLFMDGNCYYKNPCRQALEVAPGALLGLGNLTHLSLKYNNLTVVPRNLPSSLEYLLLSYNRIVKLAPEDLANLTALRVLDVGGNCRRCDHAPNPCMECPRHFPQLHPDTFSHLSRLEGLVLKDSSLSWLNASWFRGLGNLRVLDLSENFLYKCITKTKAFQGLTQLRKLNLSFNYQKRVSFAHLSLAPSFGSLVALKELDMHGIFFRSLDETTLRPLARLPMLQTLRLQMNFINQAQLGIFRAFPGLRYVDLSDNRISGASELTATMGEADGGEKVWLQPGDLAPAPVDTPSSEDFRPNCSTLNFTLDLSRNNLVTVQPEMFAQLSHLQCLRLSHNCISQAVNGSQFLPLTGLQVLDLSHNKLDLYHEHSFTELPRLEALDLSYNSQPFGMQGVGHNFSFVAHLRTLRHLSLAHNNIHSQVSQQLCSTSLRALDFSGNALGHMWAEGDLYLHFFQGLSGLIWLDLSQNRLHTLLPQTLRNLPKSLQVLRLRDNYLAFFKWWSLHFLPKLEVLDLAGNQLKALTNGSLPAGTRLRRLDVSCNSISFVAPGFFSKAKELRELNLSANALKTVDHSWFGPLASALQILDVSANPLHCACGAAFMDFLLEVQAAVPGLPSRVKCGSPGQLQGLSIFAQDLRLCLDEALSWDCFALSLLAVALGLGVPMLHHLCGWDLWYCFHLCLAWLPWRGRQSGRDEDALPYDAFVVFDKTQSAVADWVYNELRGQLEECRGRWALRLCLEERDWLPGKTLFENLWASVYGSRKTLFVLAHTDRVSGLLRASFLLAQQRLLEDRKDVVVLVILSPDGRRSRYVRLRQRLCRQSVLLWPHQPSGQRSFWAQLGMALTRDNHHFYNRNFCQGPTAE
Summary of the method: as §1

Sequence of human TLR7 (Q9NYK1 27-1049): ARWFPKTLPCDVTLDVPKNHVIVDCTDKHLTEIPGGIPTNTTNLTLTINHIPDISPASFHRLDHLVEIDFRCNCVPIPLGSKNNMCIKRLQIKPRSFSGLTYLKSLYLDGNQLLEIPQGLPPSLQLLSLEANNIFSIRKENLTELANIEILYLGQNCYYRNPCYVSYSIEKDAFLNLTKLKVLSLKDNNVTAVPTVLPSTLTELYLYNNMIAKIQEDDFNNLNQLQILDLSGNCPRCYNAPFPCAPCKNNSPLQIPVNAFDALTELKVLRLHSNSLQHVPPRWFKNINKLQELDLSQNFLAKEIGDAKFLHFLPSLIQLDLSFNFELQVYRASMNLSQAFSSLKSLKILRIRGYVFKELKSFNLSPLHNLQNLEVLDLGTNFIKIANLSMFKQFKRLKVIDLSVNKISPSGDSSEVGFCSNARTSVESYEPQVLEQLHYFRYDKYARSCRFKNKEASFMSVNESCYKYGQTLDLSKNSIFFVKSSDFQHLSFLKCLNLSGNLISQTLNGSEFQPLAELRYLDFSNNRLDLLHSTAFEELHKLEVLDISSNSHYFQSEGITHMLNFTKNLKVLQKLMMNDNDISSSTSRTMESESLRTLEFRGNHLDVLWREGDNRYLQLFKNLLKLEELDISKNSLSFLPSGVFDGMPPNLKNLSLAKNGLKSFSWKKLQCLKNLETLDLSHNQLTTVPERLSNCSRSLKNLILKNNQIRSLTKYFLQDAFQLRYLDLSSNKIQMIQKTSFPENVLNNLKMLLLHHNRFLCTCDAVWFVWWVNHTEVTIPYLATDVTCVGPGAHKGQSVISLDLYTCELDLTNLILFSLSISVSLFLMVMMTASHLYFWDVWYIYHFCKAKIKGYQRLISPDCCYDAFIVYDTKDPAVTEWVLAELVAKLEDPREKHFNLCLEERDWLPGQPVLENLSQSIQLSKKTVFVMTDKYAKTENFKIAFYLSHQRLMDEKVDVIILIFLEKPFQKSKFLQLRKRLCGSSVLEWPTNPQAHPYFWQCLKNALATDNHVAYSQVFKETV

Row | IC50 (human TLR7) [nM] | IC50 (human TLR8) [nM] | IC50 (human TLR9) [nM] | SMILES
1 | 69 | 80 | 730 | Cc1cc(-c2[nH]c3ccc(-c4nc(C(=O)NCC5CNC5)co4)cc3c2C(C)C)cc(C)n1 [Example 288, N-(azetidin-3-ylmethyl)-2-(2-(2,6-dimethylpyridin-4-yl)-3-isopropyl-1H-indol-5-yl)oxazole-4-carboxamide]
2 | 13 | 27 | 45700 | Cc1cc(-c2[nH]c3ccc(-c4ccc(CO)nc4)cc3c2C(C)C)cc(C)n1 [Example 322, (5-(2-(2,6-dimethylpyridin-4-yl)-3-isopropyl-1H-indol-5-yl)pyridin-2-yl)methanol]
3 | 570 | 312 | > 50000 | COc1ccc(-c2[nH]c3ccc(-c4ccc(N5CCN(C6CCCC6)CC5)cc4)cc3c2C(C)C)cc1OC [Example 403, 5-(4-(4-cyclopentylpiperazin-1-yl)phenyl)-2-(3,4-dimethoxyphenyl)-3-isopropyl-1H-indole]
4 | 9.8 | 14 | 20800 | CNC(=O)c1c(-c2ccc3[nH]c(-c4ccnc(C)c4)c(C(C)C)c3c2)nn2c1CNCC2 [Example 215, 2-(3-isopropyl-2-(2-methylpyridin-4-yl)-1H-indol-5-yl)-N-methyl-4,5,6,7-tetrahydropyrazolo[1,5-a]pyrazine-3-carboxamide]
5 | 2330 | 471 | > 50000 | CC(C)c1c(-c2ccnc3[nH]ncc23)[nH]c2ccc(-c3nnc(CN4CCOCC4)o3)cc12 [Example 152, 4-((5-(3-isopropyl-2-(1H-pyrazolo[3,4-b]pyridin-4-yl)-1H-indol-5-yl)-1,3,4-oxadiazol-2-yl)methyl)morpholine]
6 | 36 | 11 | 266 | COc1ccc(-c2[nH]c3ccc(-c4nnc(C5CCN(C6CCN(C(C)C)CC6)CC5)o4)cc3c2C(C)C)cc1OC [Example 22, 2-(2-(3,4-dimethoxyphenyl)-3-isopropyl-1H-indol-5-yl)-5-(1′-isopropyl-[1,4′-bipiperidin]-4-yl)-1,3,4-oxadiazole]
7 | 1860 | 20100 | 4360 | COc1ccc(-c2[nH]c3ccc(-c4ccc(-c5cccc(CN6CCN(C)CC6)c5)cc4)cc3c2C(C)C)cc1OC [Example 373, 2-(3,4-dimethoxyphenyl)-3-isopropyl-5-(3′-((4-methylpiperazin-1-yl)methyl)-[1,1′-biphenyl]-4-yl)-1H-indole]
8 | 11 | 2.5 | 229 | Cc1cc(-c2[nH]c3ccc(-c4nnc(C(=O)NCCCN(C)C)o4)cc3c2C(C)C)cc(C)n1 [Example 224, N-(3-(dimethylamino)propyl)-5-(2-(2,6-dimethylpyridin-4-yl)-3-isopropyl-1H-indol-5-yl)-1,3,4-oxadiazole-2-carboxamide]
9 | 22 | 6.2 | 602 | Cc1cc(-c2[nH]c3ccc(-c4nc(C(=O)NCCN5CCCCC5)co4)cc3c2C(C)C)cc(C)n1 [Example 274, 2-(2-(2,6-dimethylpyridin-4-yl)-3-isopropyl-1H-indol-5-yl)-N-(2-(piperidin-1-yl)ethyl)oxazole-4-carboxamide]
10 | 960 | 56 | 2530 | COc1ccc(-c2[nH]c3ccc(-c4ccnc(N5CCN(C6CCC6)CC5)c4)cc3c2C(C)C)cc1OC [Example 427, 5-(2-(4-cyclobutylpiperazin-1-yl)pyridin-4-yl)-2-(3,4-dimethoxyphenyl)-3-isopropyl-1H-indole]
11 | 134 | 3.3 | 2140 | CC(C)c1c(-c2ccnc3[nH]ncc23)[nH]c2ccc(-c3noc(C[C@@H]4CCCN4)n3)cc12 [Example 439, (S)-3-(3-isopropyl-2-(1H-pyrazolo[3,4-b]pyridin-4-yl)-1H-indol-5-yl)-5-(pyrrolidin-2-ylmethyl)-1,2,4-oxadiazole]
12 | 139 | 9.3 | 1220 | CC(C)c1c(-c2ccnc3[nH]ncc23)[nH]c2ccc(-c3cc(N4CCC(N)CC4)ncn3)cc12 [Example 208, 1-(6-(3-isopropyl-2-(1H-pyrazolo[3,4-b]pyridin-4-yl)-1H-indol-5-yl)pyrimidin-4-yl)piperidin-4-amine]
13 | 6.7 | 4.9 | 220 | Cc1cc(-c2[nH]c3ccc(-c4ccc(N5CCC(N(C)C)CC5)nc4)cc3c2C(C)C)cc(C)n1 [Example 337, 1-(5-(2-(2,6-dimethylpyridin-4-yl)-3-isopropyl-1H-indol-5-yl)pyridin-2-yl)-N,N-dimethylpiperidin-4-amine]
14 | 11 | 0.6 | 660 | Cc1cc(-c2[nH]c3ccc(-c4nnc(C5CCCN(C)C5)o4)cc3c2C(C)C)ccn1 (stereo not drawn) [Example 170, 2-(3-isopropyl-2-(2-methylpyridin-4-yl)-1H-indol-5-yl)-5-(1-methylpiperidin-3-yl)-1,3,4-oxadiazole]
15 | 67 | 9.8 | 39700 | CNc1ccc(-c2ccc3[nH]c(-c4ccnc(C)c4)c(C(C)C)c3c2)cn1 [Example 293, 5-(3-isopropyl-2-(2-methylpyridin-4-yl)-1H-indol-5-yl)-N-methylpyridin-2-amine]
16 | 1040 | 340 | > 50000 | COc1ccc(-c2[nH]c3ccc(-c4nnc(CC(F)(F)F)o4)cc3c2C(C)C)cc1OC [Example 64, 2-(2-(3,4-dimethoxyphenyl)-3-isopropyl-1H-indol-5-yl)-5-(2,2,2-trifluoroethyl)-1,3,4-oxadiazole]
17 | 58 | 16 | 27000 | Cc1cc(-c2[nH]c3ccc(-c4ccc(N)nn4)cc3c2C(C)C)ccn1 [Example 360, 6-(3-isopropyl-2-(2-methylpyridin-4-yl)-1H-indol-5-yl)pyridazin-3-amine]
18 | 27 | 4 | 1020 | CC(C)c1c(-c2ccnc3[nH]ncc23)[nH]c2ccc(-c3noc(C4CCN(C(=O)CN(C)C)CC4)n3)cc12 [Example 446, 2-(dimethylamino)-1-(4-(3-(3-isopropyl-2-(1H-pyrazolo[3,4-b]pyridin-4-yl)-1H-indol-5-yl)-1,2,4-oxadiazol-5-yl)piperidin-1-yl)ethan-1-one]
19 | 1980 | 220 | > 50000 | COc1ccc(-c2[nH]c3ccc(-c4nnc(CNCCNC(C)=O)o4)cc3c2C(C)C)cc1OC [Example 108, N-(2-(((5-(2-(3,4-dimethoxyphenyl)-3-isopropyl-1H-indol-5-yl)-1,3,4-oxadiazol-2-yl)methyl)amino)ethyl)acetamide]
20 | 157 | 266 | > 50000 | CCOCCNCc1nnc(-c2ccc3[nH]c(-c4ccc(OC)c(OC)c4)c(C(C)C)c3c2)o1 [Example 111, N-((5-(2-(3,4-dimethoxyphenyl)-3-isopropyl-1H-indol-5-yl)-1,3,4-oxadiazol-2-yl)methyl)-2-ethoxyethan-1-amine]
21 | 974 | 71 | > 50000 | COc1ccc(-c2[nH]c3ccc(-c4cccc(C(=O)N(C)CCc5ccccn5)c4)cc3c2CC(F)(F)F)cc1OC [Example 35, 3-(2-(3,4-dimethoxyphenyl)-3-(2,2,2-trifluoroethyl)-1H-indol-5-yl)-N-methyl-N-(2-(pyridin-2-yl)ethyl)benzamide]
